Data from patent US20050245563A1 (Millennium Pharmaceuticals, Inc., priority 2003, published 2005).
pIC50: −log10 of the molar value.

biological target: T1, human Chk1 (GST-Chk1) (Homo sapiens, UniProt O14757); assay: Chk1 FlashPlate kinase assay; assay type: biochemical; conditions: 8.7 nM GST-Chk1, 1 uM ATP, 33P incorporation into peptide substrate
T1 construct: made in house; host or cells: insect cells (baculovirus, Bac-to-Bac)
T1 sequence (O14757 1-476): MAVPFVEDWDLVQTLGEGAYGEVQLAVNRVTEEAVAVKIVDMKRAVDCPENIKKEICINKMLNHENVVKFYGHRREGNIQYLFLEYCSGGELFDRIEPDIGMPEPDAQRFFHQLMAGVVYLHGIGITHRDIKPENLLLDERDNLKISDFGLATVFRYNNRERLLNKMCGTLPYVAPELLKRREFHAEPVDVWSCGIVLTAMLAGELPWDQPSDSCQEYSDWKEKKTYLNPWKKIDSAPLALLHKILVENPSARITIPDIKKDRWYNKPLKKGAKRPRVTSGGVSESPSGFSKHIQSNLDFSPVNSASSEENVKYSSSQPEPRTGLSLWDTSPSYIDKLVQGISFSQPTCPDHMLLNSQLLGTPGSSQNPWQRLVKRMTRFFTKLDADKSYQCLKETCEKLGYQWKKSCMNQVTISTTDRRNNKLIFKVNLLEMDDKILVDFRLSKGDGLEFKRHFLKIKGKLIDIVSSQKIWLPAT
Method in brief: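 GST-tagged human Chk1 (8.7 nM), baculovirus-expressed, with 3 uM biotinylated peptide, 1 uM ATP plus ^33P-γ-ATP, in MES/EGTA pH 8.0, DTT, Tween 20, 4% DMSO; 30 min at room temperature. EDTA-stopped; phosphopeptide captured on streptavidin FlashPlates and ^33P counted by scintillation.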

Row | Compound | pIC50
1 | Cc1[nH]nc2c1c(=O)n(CCCNC(=O)CCCNC(=O)OC(C)(C)C)c1ccccc21 [Example 100, {3-[3-(3-Methyl-4-oxo-2,4-dihydro-pyrazolo[4,3-c]quinolin-5-yl)-propylcarbamoyl]-propyl}-carbamic acid tert-butyl ester] | 4.70 to 6.00
2 | Cc1[nH]nc2c1c(=O)n(CCCNC(=O)CCNC(=O)OC(C)(C)C)c1ccccc21 [Example 101, {2-[3-(3-Methyl-4-oxo-2,4-dihydro-pyrazolo[4,3-c]quinolin-5-yl)-propylcarbamoyl]-ethyl}-carbamic acid tert-butyl ester] | 4.70 to 6.00
3 | Cc1[nH]nc2c1c(=O)n(CCCNC(=O)CNC(=O)OC(C)(C)C)c1ccccc21 [Example 102, {[3-(3-Methyl-4-oxo-2,4-dihydro-pyrazolo[4,3-c]quinolin-5-yl)-propylcarbamoyl]-methyl}-carbamic acid tert-butyl ester] | 4.70 to 6.00
4 | Cc1[nH]nc2c1c(=O)n(CCCNC(=O)C(N)Cc1ccc(OCc3ccccc3)cc1)c1ccccc21 (stereo not drawn) [Example 107, 2-Amino-3-(4-benzyloxy-phenyl)-N-[3-(3-methyl-4-oxo-2,4-dihydro-pyrazolo[4,3-c]quinolin-5-yl)-propyl]-propionamide] | 4.70 to 6.00
5 | Cc1[nH]nc2c1c(=O)n(CCNS(=O)(=O)c1ccccc1)c1ccccc21 [Example 110, N-[2-(3-Methyl-4-oxo-2,4-dihydro-pyrazolo[4,3-c]quinolin-5-yl)-ethyl]-benzene sulfonamide] | 4.70 to 6.00
6 | Cc1[nH]nc2c1c(=O)n(CCNC(=O)N1CCOCC1)c1ccccc21 [Example 112, Morpholine-4-carboxylic acid [2-(3-methyl-4-oxo-2,4-dihydro-pyrazolo[4,3-c]quinolin-5-yl)-ethyl]-amide] | 4.70 to 6.00
7 | Cc1[nH]nc2c1c(=O)n(CCCN)c1ccc(N3CCCC3)cc21 [Example 120] | > 6.00
8 | Cc1[nH]nc2c1c(=O)n(CCCN)c1ccc(N3CCN(C)CC3)cc21 [Example 121, 5-(3-Amino-propyl)-3-methyl-8-(4-methyl-piperazin-1-yl)-2,5-dihydro-pyrazolo[4,3-c]quinolin-4-one] | > 6.00
9 | Cc1[nH]nc2c1c(=O)n(CCCNC(=O)CN)c1ccccc21 [Example 122, 2-Amino-N-[3-(3-methyl-4-oxo-2,4-dihydro-pyrazolo[4,3-c]quinolin-5-yl)-propyl]-acetamide] | > 6.00
10 | Cc1[nH]nc2c1c(=O)n(CCCNC(=O)C(N)CCCCN)c1ccccc21 (stereo not drawn) [Example 123, 2,6-Diamino-hexanoic acid [3-(3-methyl-4-oxo-2,4-dihydro-pyrazolo[4,3-c]quinolin-5-yl)-propyl]-amide] | > 6.00
11 | Cc1[nH]nc2c1c(=O)n(CCCNC(=O)CCN)c1ccccc21 [Example 124, 3-Amino-N-[3-(3-methyl-4-oxo-2,4-dihydro-pyrazolo[4,3-c]quinolin-5-yl)-propyl]-propionamide] | > 6.00
12 | Cc1[nH]nc2c1c(=O)n(CCCNC(=O)c1ccc(OC(F)(F)F)cc1)c1ccccc21 [Example 125, N-[3-(3-Methyl-4-oxo-2,4-dihydro-pyrazolo[4,3-c]quinolin-5-yl)-propyl]-4-trifluoromethoxy-benzamide] | > 6.00

Now from value to compound:

Row | pIC50 | Compound
13 | > 6.00 | Cc1[nH]nc2c1c(=O)n(CCCNC(=O)C1CCC(=O)N1)c1ccccc21 (stereo not drawn) [Example 103, 5-Oxo-pyrrolidine-2-carboxylic acid [3-(3-methyl-4-oxo-2,4-dihydro-pyrazolo[4,3-c]quinolin-5-yl)-propyl]-amide]
14 | > 6.00 | Cc1[nH]nc2c1c(=O)n(CCCNC(=O)[C@@H](N)Cc1ccc(F)cc1)c1ccccc21 [Example 104, 2-Amino-3-(4-fluoro-phenyl)-N-[3-(3-methyl-4-oxo-2,4-dihydro-pyrazolo[4,3-c]quinolin-5-yl)-propyl]-propionamide]
15 | > 6.00 | Cc1n[nH]c2c1c(=O)n(CCNC(=O)C(N)Cc1ccccc1)c1ccccc21 (stereo not drawn) [Example 105, 2-Amino-N-[2-(3-methyl-4-oxo-1,4-dihydro-pyrazolo[4,3-c]quinolin-5-yl)-ethyl]-3-phenyl-propionamide]
16 | > 6.00 | Cc1[nH]nc2c1c(=O)n(CCCNC(=O)CCCN)c1ccccc21 [Example 106, 4-Amino-N-[3-(3-methyl-4-oxo-2,4-dihydro-pyrazolo[4,3-c]quinolin-5-yl)-propyl]-butyramide]
17 | > 6.00 | Cc1[nH]nc2c1c(=O)n(CCCNC(=O)C(N)Cc1ccc(O)cc1)c1ccccc21 (stereo not drawn) [Example 108, 2-Amino-3-(4-hydroxy-phenyl)-N-[3-(3-methyl-4-oxo-2,4-dihydro-pyrazolo[4,3-c]quinolin-5-yl)-propyl]-propionamide]
18 | > 6.00 | NCCCn1c(=O)c2c[nH]nc2c2cc(Cl)ccc21 [Example 109, 5-(3-Amino-propyl)-8-chloro-2,5-dihydro-pyrazolo[4,3-c]quinolin-4-one]
19 | > 6.00 | CCCCNc1ccc2c(c1)c1n[nH]c(C)c1c(=O)n2CCCN [Example 116]
20 | > 6.00 | Cc1[nH]nc2c1c(=O)n(CCCNC(=O)C(N)Cc1ccc(Cl)cc1)c1ccccc21 (stereo not drawn) [Example 117, 2-Amino-3-(4-chloro-phenyl)-N-[3-(3-methyl-4-oxo-2,4-dihydro-pyrazolo[4,3-c]quinolin-5-yl)-propyl]-propionamide]
21 | > 6.00 | Cc1[nH]nc2c1c(=O)n(CCCNC(=O)OCc1ccccc1Br)c1ccccc21 [Example 119, [3-(3-Methyl-4-oxo-2,4-dihydro-pyrazolo[4,3-c]quinolin-5-yl)-propyl]-carbamic acid 2-bromo-benzyl ester]
